Patent US20230022841A1, “ISARIDIN CYCLODEPSIPEPTIDE DERIVATIVES, AND PREPARATION AND APPLICATION THEREOF” (Sun Yat-sen University, priority 2022, published 2023)

Experiments:
[1] = system: LPS-induced RAW264.7 cells; experiment: NO release from LPS-induced macrophage RAW264.7 cells (Griess); type: cell-based; details: Mus musculus, LPS 1 μg/mL, 24 h, Griess reagent, read-out: half maximal inhibitory concentration (IC50), NO release inhibition
Experimental: The effect of the compounds I-1 to I-9 and I-13 to I-15 prepared in Example 1 on the NO release from LPS-induced macrophage RAW264.7 cells was investigated to evaluate the anti-inflammatory activity, which was specifically described as follows.
Lipopolysaccharide (LPS); indomethacin (Indomethacin, Indo, positive control); mouse mononuclear macrophages (RAW264.7); dimethyl sulfoxide (DMSO); Methylthiazolyldiphenyl-tetrazolium bromide (MTT, 5 mg/mL); and Griess reagent nitrite measurement kit (Beyotime Biotechnology Co., Ltd).
The compounds were respectively dissolved in DMSO to obtain a series of 10 mM stock solutions, which were diluted with Dulbecco's modified eagle medium (DMEM) to a required concentration (DMSO<2%) for use.
RAW264.7 cells (1×10^5 cells/mL) were inoculated into a 96-well plate at 100 μL per well and incubated at 37° C. and 5% CO2 for 12 h. Different concentrations of samples containing LPS (with a final concentration of 1 μg/mL) were respectively loaded on the plate. […] After that, the absorbance of each well of the 96-well plate at 540 nm was measured with a microplate reader and then plugged into the standard curve to calculate the NO release level. […]

[2] = system: ADP-induced platelet aggregation; experiment: ADP-induced platelet aggregation in vitro (platelet-rich plasma, turbidimetric method); type: cell-based, Kunming mice; details: 5 min; mouse platelet-rich plasma, ADP inducer, 37° C., maximum aggregation rate within 5 min; values stated as approximate; read-out: IC50, inhibition of ADP-induced platelet aggregation
Experimental: Compounds I-1 to I-9 and I-13 to I-15 prepared in Example 1 were tested for their inhibitory effects on the ADP-induced platelet aggregation in vitro to evaluate the anti-thrombotic activities, and the test process was specifically described as follows.
Kunming mice were anesthetized with pentobarbital sodium, and blood was collected from the celiac artery, where the syringe was added with 3.2% sodium citrate for anti-coagulation in advance (a volume ratio of whole blood to the anticoagulant was 9:1). The mixture was gently mixed and centrifuged at 1000 r/min for 10 min to collect the supernatant as the platelet-rich plasma (PRP). The remaining part was centrifuged at 3000 r/min for 10 min to obtain platelet-poor plasma (PPP). […]
For the blank control group, 1% DMSO was mixed with 295 μL of PRP; for the drug group, 5 μL of the isaridin derivatives with different concentrations (a final concentration of 0-100 μM) was mixed with 295 μL of PRP; and regarding the positive control group, aspirin was mixed with plasma to a final concentration of 120 μM. […] Three parallel samples were tested for each group, and the platelet aggregation rate was measured at 37° C. by turbidimetric method, where the maximum aggregation rate within 5 min was recorded.
The platelet aggregation rate was expressed as the maximum platelet aggregation rate, and the results were expressed as the inhibition rate. […]

Structure (SMILES) | IC50 [1] | IC50 [2]
COc1ccc2c(c1)c(CC(=O)O)c(C)n2C(=O)c1ccc(Cl)cc1 [indomethacin] | 38 µM | 
CC(=O)Oc1ccccc1C(=O)O [aspirin] |  | 120 µM
